Laboratory results: ChEMBL document CHEMBL5154747, “Discovery of new carbonic anhydrase IX inhibitors as anticancer agents by toning the hydrophobic and hydrophilic rims of the active site to encounter the dual-tail approach” (Eur J Med Chem, 2022)

Experiments:
[1] = tested on: NCI-H460; test: Anticancer activity against human NCI-H460 cells assessed as cell growth inhibition at 10 uM incubated for 48 hrs by SRB assay relative to control; assay type: functional; details: read-out: GI
[2] = tested on: MOLT-4; test: Anticancer activity against human MOLT-4 cells assessed as cell growth inhibition at 10 uM incubated for 48 hrs by SRB assay relative to control; assay type: functional; details: read-out: GI
[3] = tested on: CAKI-1; test: Anticancer activity against human CAKI-1 cells assessed as cell growth inhibition at 10 uM incubated for 48 hrs by SRB assay relative to control; assay type: functional; details: read-out: GI
[4] = tested on: KM12; test: Anticancer activity against human KM12 cells assessed as cell growth inhibition at 10 uM incubated for 48 hrs by SRB assay relative to control; assay type: functional; details: read-out: GI
[5] = tested on: SK-MEL-5; test: Anticancer activity against human SK-MEL-5 cells assessed as cell growth inhibition at 10 uM incubated for 48 hrs by SRB assay relative to control; assay type: functional; details: read-out: GI
[6] = target: Carbonic anhydrase 9 (Homo sapiens, UniProt Q16790); test: Inhibition of recombinant human CA 9 preincubated for 15 mins by phenol red dye based stopped flow CO2 hydration assay
[7] = tested on: NCI-H23; test: Anticancer activity against human NCI-H23 cells assessed as cell growth inhibition at 10 uM incubated for 48 hrs by SRB assay relative to control; assay type: functional; details: read-out: GI
[8] = tested on: HCT-116; test: Anticancer activity against human HCT-116 cells assessed as cell growth inhibition at 10 uM incubated for 48 hrs by SRB assay relative to control; assay type: functional; details: read-out: GI
[9] = tested on: UACC-257; test: Anticancer activity against human UACC-257 cells assessed as cell growth inhibition at 10 uM incubated for 48 hrs by SRB assay relative to control; assay type: functional; details: read-out: GI
[10] = tested on: SK-MEL-2; test: Anticancer activity against human SK-MEL-2 cells assessed as cell growth inhibition at 10 uM incubated for 48 hrs by SRB assay relative to control; assay type: functional; details: read-out: GI
[11] = tested on: MDA-MB-435; test: Anticancer activity against human MDA-MB-435 cells assessed as cell growth inhibition at 10 uM incubated for 48 hrs by SRB assay relative to control; assay type: functional; details: read-out: GI
[12] = tested on: A498; test: Anticancer activity against human A498 cells assessed as cell growth inhibition at 10 uM incubated for 48 hrs by SRB assay relative to control; assay type: functional; details: read-out: GI
[13] = tested on: OVCAR-4; test: Anticancer activity against human OVCAR-4 cells assessed as cell growth inhibition at 10 uM incubated for 48 hrs by SRB assay relative to control; assay type: functional; details: read-out: GI
[14] = tested on: MDA-MB-468; test: Anticancer activity against human MDA-MB-468 cells assessed as cell growth inhibition at 10 uM incubated for 48 hrs by SRB assay relative to control; assay type: functional; details: read-out: GI
[15] = tested on: MDA-MB-231; test: Anticancer activity against human MDA-MB-231 cells assessed as cell growth inhibition at 10 uM incubated for 48 hrs by SRB assay relative to control; assay type: functional; details: read-out: GI
[16] = tested on: SNB-75; test: Anticancer activity against human SNB-75 cells assessed as cell growth inhibition at 10 uM incubated for 48 hrs by SRB assay relative to control; assay type: functional; details: read-out: GI
[17] = tested on: T47D; test: Anticancer activity against human T47D cells assessed as cell growth inhibition at 10 uM incubated for 48 hrs by SRB assay relative to control; assay type: functional; details: read-out: GI
[18] = tested on: HCT-15; test: Anticancer activity against human HCT-15 cells assessed as cell growth inhibition at 10 uM incubated for 48 hrs by SRB assay relative to control; assay type: functional; details: read-out: GI
[19] = tested on: K562; test: Anticancer activity against human K562 cells assessed as cell growth inhibition at 10 uM incubated for 48 hrs by SRB assay relative to control; assay type: functional; details: read-out: GI
[20] = tested on: RPMI-8226; test: Anticancer activity against human RPMI-8226 cells assessed as cell growth inhibition at 10 uM incubated for 48 hrs by SRB assay relative to control; assay type: functional; details: read-out: GI
[21] = tested on: PC-3; test: Anticancer activity against human PC-3 cells assessed as cell growth inhibition at 10 uM incubated for 48 hrs by SRB assay relative to control; assay type: functional; details: read-out: GI
[22] = tested on: NCI-H226; test: Anticancer activity against human NCI-H226 cells assessed as cell growth inhibition at 10 uM incubated for 48 hrs by SRB assay relative to control; assay type: functional; details: read-out: GI
[23] = tested on: NCI/ADR-RES; test: Anticancer activity against human NCI/ADR-RES cells assessed as cell growth inhibition at 10 uM incubated for 48 hrs by SRB assay relative to control; assay type: functional; details: read-out: GI
[24] = tested on: SF-268; test: Anticancer activity against human SF-268 cells assessed as cell growth inhibition at 10 uM incubated for 48 hrs by SRB assay relative to control; assay type: functional; details: read-out: GI
[25] = tested on: OVCAR-5; test: Anticancer activity against human OVCAR-5 cells assessed as cell growth inhibition at 10 uM incubated for 48 hrs by SRB assay relative to control; assay type: functional; details: read-out: GI
[26] = tested on: U-251; test: Anticancer activity against human U-251 cells assessed as cell growth inhibition at 10 uM incubated for 48 hrs by SRB assay relative to control; assay type: functional; details: read-out: GI
[27] = tested on: A549; test: Anticancer activity against human A549 cells assessed as cell growth inhibition at 10 uM incubated for 48 hrs by SRB assay relative to control; assay type: functional; details: read-out: GI
[28] = tested on: SF-539; test: Anticancer activity against human SF-539 cells assessed as cell growth inhibition at 10 uM incubated for 48 hrs by SRB assay relative to control; assay type: functional; details: read-out: GI
[29] = tested on: HL-60(TB); test: Anticancer activity against human HL-60(TB) cells assessed as cell growth inhibition at 10 uM incubated for 48 hrs by SRB assay relative to control; assay type: functional; details: read-out: GI
[30] = tested on: HOP-92; test: Anticancer activity against human HOP-92 cells assessed as cell growth inhibition at 10 uM incubated for 48 hrs by SRB assay relative to control; assay type: functional; details: read-out: GI
[31] = tested on: OVCAR-3; test: Anticancer activity against human OVCAR-3 cells assessed as cell growth inhibition at 10 uM incubated for 48 hrs by SRB assay relative to control; assay type: functional; details: read-out: GI
[32] = tested on: BT-549; test: Anticancer activity against human BT-549 cells assessed as cell growth inhibition at 10 uM incubated for 48 hrs by SRB assay relative to control; assay type: functional; details: read-out: GI
[33] = tested on: SW-620; test: Anticancer activity against human SW-620 cells assessed as cell growth inhibition at 10 uM incubated for 48 hrs by SRB assay relative to control; assay type: functional; details: read-out: GI
[34] = tested on: UACC-62; test: Anticancer activity against human UACC-62 cells assessed as cell growth inhibition at 10 uM incubated for 48 hrs by SRB assay relative to control; assay type: functional; details: read-out: GI
[35] = tested on: SR; test: Anticancer activity against human SR cells assessed as cell growth inhibition at 10 uM incubated for 48 hrs by SRB assay relative to control; assay type: functional; details: read-out: GI
[36] = tested on: HOP-62; test: Anticancer activity against human HOP-62 cells assessed as cell growth inhibition at 10 uM incubated for 48 hrs by SRB assay relative to control; assay type: functional; details: read-out: GI
[37] = tested on: HCC 2998; test: Anticancer activity against human HCC 2998 cells assessed as cell growth inhibition at 10 uM incubated for 48 hrs by SRB assay relative to control; assay type: functional; details: read-out: GI
[38] = tested on: MCF7; test: Anticancer activity against human MCF7 cells assessed as cell growth inhibition at 10 uM incubated for 48 hrs by SRB assay relative to control; assay type: functional; details: read-out: GI
[39] = tested on: ACHN; test: Anticancer activity against human ACHN cells assessed as cell growth inhibition at 10 uM incubated for 48 hrs by SRB assay relative to control; assay type: functional; details: read-out: GI
[40] = tested on: CCRF-CEM; test: Anticancer activity against human CCRF-CEM cells assessed as cell growth inhibition at 10 uM incubated for 48 hrs by SRB assay relative to control; assay type: functional; details: read-out: GI

| Compound | inhibition of growth at 10 µM [1] [%] | inhibition of growth at 10 µM [2] [%] | inhibition of growth at 10 µM [3] [%] | inhibition of growth at 10 µM [4] [%] | inhibition of growth at 10 µM [5] [%] | Ki [6] [µM] | inhibition of growth at 10 µM [7] [%] | inhibition of growth at 10 µM [8] [%] | inhibition of growth at 10 µM [9] [%] | inhibition of growth at 10 µM [10] [%] | inhibition of growth at 10 µM [11] [%] | inhibition of growth at 10 µM [12] [%] | inhibition of growth at 10 µM [13] [%] | inhibition of growth at 10 µM [14] [%] | inhibition of growth at 10 µM [15] [%] | inhibition of growth at 10 µM [16] [%] | inhibition of growth at 10 µM [17] [%] | inhibition of growth at 10 µM [18] [%] | inhibition of growth at 10 µM [19] [%] | inhibition of growth at 10 µM [20] [%] | other results |
| --- | --- | --- | --- | --- | --- | --- | --- | --- | --- | --- | --- | --- | --- | --- | --- | --- | --- | --- | --- | --- | --- |
| Cc1nn(-c2ccccc2)cc1/C=N/Nc1nc(Nc2ccccc2)nc(Nc2ccc(S(N)(=O)=O)cc2)n1 | 135 | 93 | 127 | 90 | 144 | 0.207 | 114 | 59 | 44 | 45 | 131 | 130 | 85 | 137 | 120 | 55 | 81 | 92 | 90 | 123 | inhibition of growth at 10 µM [21]: 98%; inhibition of growth at 10 µM [22]: 159%; inhibition of growth at 10 µM [23]: 23%; inhibition of growth at 10 µM [24]: 107%; inhibition of growth at 10 µM [25]: 113%; inhibition of growth at 10 µM [26]: 122%; inhibition of growth at 10 µM [27]: 128%; inhibition of growth at 10 µM [28]: 28%; inhibition of growth at 10 µM [29]: 96%; inhibition of growth at 10 µM [30]: 113%; inhibition of growth at 10 µM [31]: 131%; inhibition of growth at 10 µM [32]: 78%; inhibition of growth at 10 µM [33]: 114%; inhibition of growth at 10 µM [34]: 127%; inhibition of growth at 10 µM [35]: 66%; inhibition of growth at 10 µM [36]: 90%; inhibition of growth at 10 µM [37]: 117%; inhibition of growth at 10 µM [38]: 169%; inhibition of growth at 10 µM [39]: 100%; inhibition of growth at 10 µM [40]: 91% |
| COc1ccc(/C=N/Nc2nc(Nc3ccccc3)nc(Nc3ccc(S(N)(=O)=O)cc3)n2)cc1 | 44 | 55 | 24 | 25 | 25 | 0.0994 | 29 | 49 | < 10 | 31 | 23 | 38 | 33 | 23 | 32 | 18 | 36 | 31 | 50 | 52 | inhibition of growth at 10 µM [21]: 24%; inhibition of growth at 10 µM [22]: 26%; inhibition of growth at 10 µM [23]: < 10%; inhibition of growth at 10 µM [24]: < 10%; inhibition of growth at 10 µM [25]: 14%; inhibition of growth at 10 µM [26]: 33%; inhibition of growth at 10 µM [27]: 12%; inhibition of growth at 10 µM [28]: 51%; inhibition of growth at 10 µM [29]: 16%; inhibition of growth at 10 µM [30]: < 10%; inhibition of growth at 10 µM [31]: 38%; inhibition of growth at 10 µM [32]: 14%; inhibition of growth at 10 µM [33]: 27%; inhibition of growth at 10 µM [34]: 12%; inhibition of growth at 10 µM [35]: 51%; inhibition of growth at 10 µM [36]: 19%; inhibition of growth at 10 µM [37]: 12%; inhibition of growth at 10 µM [38]: 59%; inhibition of growth at 10 µM [39]: 24%; inhibition of growth at 10 µM [40]: 54% |
| NS(=O)(=O)c1ccc(Nc2nc(N/N=C/c3cccc4ccccc34)nc(Nc3ccccc3)n2)cc1 | 13 | 84 | 23 | 27 | 29 | 0.0281 | 10 | 45 | < 10 | 17 | 41 | < 10 | 16 | < 10 | < 10 | < 10 | 55 | 29 | 41 | 51 | inhibition of growth at 10 µM [21]: 44%; inhibition of growth at 10 µM [22]: 19%; inhibition of growth at 10 µM [23]: < 10%; inhibition of growth at 10 µM [24]: 12%; inhibition of growth at 10 µM [25]: < 10%; inhibition of growth at 10 µM [26]: 33%; inhibition of growth at 10 µM [27]: 26%; inhibition of growth at 10 µM [28]: 22%; inhibition of growth at 10 µM [29]: 28%; inhibition of growth at 10 µM [30]: < 10%; inhibition of growth at 10 µM [31]: 23%; inhibition of growth at 10 µM [32]: < 10%; inhibition of growth at 10 µM [33]: < 10%; inhibition of growth at 10 µM [34]: 18%; inhibition of growth at 10 µM [35]: 65%; inhibition of growth at 10 µM [36]: 11%; inhibition of growth at 10 µM [37]: 15%; inhibition of growth at 10 µM [38]: 46%; inhibition of growth at 10 µM [39]: 18%; inhibition of growth at 10 µM [40]: 81% |
